# Assay results: US7662832B2, “Pyrrolo[2,3-c]pyridine derivatives and processes for the preparation thereof” (priority 2004, dated 2010)
# pIC50: −log10 of the molar value. Where a name gives a salt, the structure may show the parent alone.
# Molecular target: Proton Pump (H^+/K^+-ATPase) (Sus scrofa, UniProt P19156)
# Assay: Inhibitory effects on proton pump (H^+/K^+-ATPase) activity
# Format: biochemical
# Details: hog gastric vesicles; K^+ stimulated H^+/K^+-ATPase activity; 30 minutes at 37° C.
# Sequence of Proton Pump (H^+/K^+-ATPase) (P19156 2-1034 limits assumed): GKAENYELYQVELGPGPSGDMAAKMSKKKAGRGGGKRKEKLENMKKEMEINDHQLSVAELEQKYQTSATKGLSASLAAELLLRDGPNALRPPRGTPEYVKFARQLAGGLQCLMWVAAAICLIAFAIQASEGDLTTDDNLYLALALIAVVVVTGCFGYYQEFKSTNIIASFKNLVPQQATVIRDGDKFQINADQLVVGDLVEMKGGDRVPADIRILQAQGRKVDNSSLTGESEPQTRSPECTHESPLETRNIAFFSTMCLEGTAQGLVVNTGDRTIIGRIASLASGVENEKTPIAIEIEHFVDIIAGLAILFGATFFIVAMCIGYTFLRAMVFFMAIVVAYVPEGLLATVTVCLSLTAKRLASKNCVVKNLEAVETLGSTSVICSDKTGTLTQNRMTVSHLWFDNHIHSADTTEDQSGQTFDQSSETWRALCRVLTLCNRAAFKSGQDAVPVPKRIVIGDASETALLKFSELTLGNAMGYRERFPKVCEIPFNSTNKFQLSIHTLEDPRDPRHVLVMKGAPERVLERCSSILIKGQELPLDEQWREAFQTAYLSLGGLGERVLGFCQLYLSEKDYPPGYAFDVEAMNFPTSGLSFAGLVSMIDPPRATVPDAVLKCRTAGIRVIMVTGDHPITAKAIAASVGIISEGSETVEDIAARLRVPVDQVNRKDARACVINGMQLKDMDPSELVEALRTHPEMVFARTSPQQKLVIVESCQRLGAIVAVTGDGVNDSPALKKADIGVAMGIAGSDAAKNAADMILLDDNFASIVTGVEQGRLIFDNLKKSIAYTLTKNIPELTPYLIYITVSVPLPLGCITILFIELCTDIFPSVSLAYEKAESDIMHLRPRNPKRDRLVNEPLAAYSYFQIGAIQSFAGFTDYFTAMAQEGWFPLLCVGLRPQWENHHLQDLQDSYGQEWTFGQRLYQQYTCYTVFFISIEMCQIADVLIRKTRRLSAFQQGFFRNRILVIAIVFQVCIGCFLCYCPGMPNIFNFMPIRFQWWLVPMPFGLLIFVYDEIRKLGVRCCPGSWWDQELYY
# Sequence of Proton Pump (H^+/K^+-ATPase) (P18434 whole entry partner): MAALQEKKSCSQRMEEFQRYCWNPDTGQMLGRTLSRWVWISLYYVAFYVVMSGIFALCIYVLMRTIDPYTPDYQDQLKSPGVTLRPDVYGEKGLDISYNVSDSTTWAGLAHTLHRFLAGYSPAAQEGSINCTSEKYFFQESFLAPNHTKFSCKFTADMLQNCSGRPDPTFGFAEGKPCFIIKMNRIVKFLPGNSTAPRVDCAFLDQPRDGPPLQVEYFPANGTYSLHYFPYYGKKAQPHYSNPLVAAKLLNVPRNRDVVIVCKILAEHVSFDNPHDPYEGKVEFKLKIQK
row,Structure (SMILES),pIC50
1,"CCc1[nH]c2c(N3CCc4ccccc4C3)nccc2c1C [Example 591, 2-ethyl-3-methyl-7-(1,2,3,4-tetrahydroisoquinolin-2-yl)-1H-pyrrolo[2,3-c]pyridine]",6.30
2,"Cc1c(C)n(CC(C)C)c2c(NCc3ccccc3)nccc12 [Example 184, 7-benzylamino-1-isobutyl-2,3-dimethyl-1H-pyrrolo[2,3-c]pyridine hydrochloride]",6.62
3,"CCn1c(C)c(C)c2cc(C(=O)N3CCN(C)CC3)nc(N3CCc4ccccc4C3)c21 [Example 782, [7-(3,4-dihydro-1H-isoquinolin-2-yl)-1-ethyl-2,3-dimethyl-1H-pyrrolo[2,3-c]pyridin-5-yl]-(4-methylpiperazin-1-yl)-methanone hydrochloride]",9.00
4,"C=CCn1c(C)c(C)c2cc(C(=O)O)nc(N3CCc4ccccc4C3)c21 [Example 732, 1-allyl-7-(3,4-dihydro-1H-isoquinolin-2-yl)-2,3-dimethyl-1H-pyrrolo[2,3-c]pyridin-5-carboxylic acid]",7.66
5,"Cc1c(C)n(Cc2cccc(F)c2)c2c(N3CCc4ccccc4C3)nc(CNC3CCC3)cc12 [Example 870, N-[7-(3,4-dihydro-1H-isoquinolin-2-yl)-1-(3-fluorobenzyl)-2,3-dimethyl-1H-pyrrolo[2,3-c]pyridin-5-ylmethyl]-cyclobutylamine hydrochloride]",7.37
6,"Cc1c(C)n(CC2CC2)c2c(CN(C)c3ccc(F)cc3)nccc12 [Example 112, N-(1-cyclopropylmethyl-2,3-dimethyl-1H-pyrrolo[2,3-c]pyridin-7-ylmethyl)-N-(4-fluorophenyl)-methylamine hydrochloride]",6.82
7,"Cc1ccc(Cn2c(C)c(C)c3ccnc(CN(C)c4ccc(F)cc4)c32)cc1 [Example 117, N-[2,3-dimethyl-1-(4-methylbenzyl)-1H-pyrrolo[2,3-c]pyridin-7-ylmethyl]-N-(4-fluorophenyl)-methylamine hydrochloride]",7.34
8,"Cc1c(C)n(Cc2cccc(F)c2)c2c(N3CCc4ccccc4C3)nc(CNc3ccc(F)cc3)cc12 [Example 866, N-[7-(3,4-dihydro-1H-isoquinolin-2-yl)-1-(3-fluorobenzyl)-2,3-dimethyl-1H-pyrrolo[2,3-c]pyridin-5-ylmethyl]-4-fluorophenylamine hydrochloride]",5.99
9,"CCn1c(C)c(C)c2ccnc(-c3ccc4ccccc4c3)c21 [Example 404, 1-ethyl-2,3-dimethyl-7-(naphthalen-2-yl)-1H-pyrrolo[2,3-c]pyridine hydrochloride]",7.02
10,"C=CCCn1c(C)c(C)c2ccnc(N3CCc4ccccc4C3)c21 [Example 508, 1-(but-3-enyl)-7-(1,2,3,4-tetrahydroisoquinolin-2-yl)-2,3-dimethyl-1H-pyrrolo[2,3-c]pyridine hydrochloride]",6.49

# Next, values leading:
row,pIC50,Structure (SMILES)
1,6.44,"COCCn1c(C)c(C)c2cc(C(=O)O)nc(N3CCc4ccccc4C3)c21 [Example 734, 7-(3,4-dihydro-1H-isoquinolin-2-yl)-1-(2-methoxyethyl)-2,3-dimethyl-1H-pyrrolo[2,3-c]pyridin-5-carboxylic acid]"
2,7.04,"COCn1c(C)c(C)c2cc(C(=O)N3CCCCC3)nc(N3CCc4ccccc4C3)c21 [Example 800, [7-(3,4-dihydro-1H-isoquinolin-2-yl)-1-methoxymethyl-2,3-dimethyl-1H-pyrrolo[2,3-c]pyridin-5-yl]-(piperidin-1-yl)-methanone hydrochloride]"
3,6.48,"Cc1c(C)n(Cc2ccc(F)cc2)c2c(CN(C)c3ccc(F)cc3)nccc12 [Example 118, N-[1-(4-fluorobenzyl)-2,3-dimethyl-1H-pyrrolo[2,3-c]pyridin-7-ylmethyl]-N-(4-fluorophenyl)-methylamine hydrochloride]"
4,6.39,"CC(C)=CCn1c(C)c(C)c2ccnc(CN(C)c3ccc(F)cc3)c21 [Example 119, N-[2,3-dimethyl-1-(3-methylbut-2-enyl)-1H-pyrrolo[2,3-c]pyridin-7-ylmethyl]-N-(4-fluorophenyl)-methylamine hydrochloride]"
5,6.70,"Cc1c(C)n(Cc2ccccc2F)c2c(N(C)Cc3ccc(F)cc3)nccc12 [Example 147, 1-(2-fluorobenzyl)-7-[N-(4-fluorobenzyl)-N-methyl]amino-2,3-dimethyl-1H-pyrrolo[2,3-c]-pyridine hydrochloride]"
6,6.82,"Cc1cccc(Cn2c(C)c(C)c3cc(CN4CCN(C)CC4)nc(N4CCc5ccccc5C4)c32)c1 [Example 878, 2-[2,3-dimethyl-1-(3-methylbenzyl)-5-(4-methylpiperazin-1-ylmethyl)-1H-pyrrolo[2,3-c]pyridin-7-yl]-1,2,3,4-tetrahydroisoquinoline hydrochloride]"
7,6.36,"CCn1c(C)c(C)c2ccnc(NCc3ccc(F)cc3)c21 [Example 223, 1-ethyl-7-(4-fluorobenzylamino)-2,3-dimethyl-1H-pyrrolo[2,3-c]pyridine hydrochloride]"
8,6.54,"Cc1c(C)n(Cc2ccc(F)cc2)c2c(N3CCc4ccccc4C3)nc(C(=O)N3CCCCC3)cc12 [Example 797, [7-(3,4-dihydro-1H-isoquinolin-2-yl)-1-(4-fluorobenzyl)-2,3-dimethyl-1H-pyrrolo[2,3-c]pyridin-5-yl]-(piperidin-1-yl)-methanone hydrochloride]"
9,8.52,"C=CCn1c(C)c(C)c2cc(C(=O)N3CCNCC3)nc(N3CCc4ccccc4C3)c21 [Example 811, [1-allyl-7-(3,4-dihydro-1H-isoquinolin-2-yl)-2,3-dimethyl-1H-pyrrolo[2,3-c]pyridin-5-yl]-(piperazin-1-yl)-methanone hydrochloride]"
10,6.66,"Cc1c(C)n(Cc2cccc(F)c2)c2c(N3CCc4ccccc4C3)nc(CF)cc12 [Example 885, 2-[1-(3-fluorobenzyl)-5-fluoromethyl-2,3-dimethyl-1H-pyrrolo[2,3-c]pyridin-7-yl]-1,2,3,4-tetrahydroisoquinoline hydrochloride]"
11,6.66,"Cc1cccc(Cn2c(C)c(C)c3cc(C(=O)N4CCCCC4)nc(N4CCc5ccccc5C4)c32)c1 [Example 798, [7-(3,4-dihydro-1H-isoquinolin-2-yl)-2,3-dimethyl-1-(3-methylbenzyl)-1H-pyrrolo[2,3-c]pyridin-5-yl]-(piperidin-1-yl)-methanone hydrochloride]"
12,7.28,"Cc1c(C)n(Cc2ccccc2)c2c(N3CCc4ccccc4C3)nc(C(=O)N3CCCCC3)cc12 [Example 788, [1-benzyl-7-(3,4-dihydro-1H-isoquinolin-2-yl)-2,3-dimethyl-1H-pyrrolo[2,3-c]pyridin-5-yl]-(piperidin-1-yl)-methanone hydrochloride]"
13,5.87,"Cc1ccc(-c2nccc3c(C)c(C)n(CC4CCC4)c23)cc1 [Example 289, 1-cyclobutylmethyl-2,3-dimethyl-7-(p-tolyl)-1H-pyrrolo[2,3-c]pyridine hydrochloride]"
14,7.37,"Cc1c(C)n(CC(C)C)c2c(N3CCc4ccccc4C3)nc(C(=O)N3CCN(C)CC3)cc12 [Example 833, [7-(3,4-dihydro-1H-isoquinolin-2-yl)-1-isobutyl-2,3-dimethyl-1H-pyrrolo[2,3-c]pyridin-5-yl]-(4-methylpiperazin-1-yl)-methanone hydrochloride]"
